Measurements as given in ChEMBL document CHEMBL1121541, “Novel analogues of enkephalin: indentification of functional groups required for biological activity” (J Med Chem, 1980).

organism: Cavia porcellus; assay: Inhibition of contraction of electrically stimulated guinea pig ileum; assay type: functional, organism-based

Row | SMILES | IC50 [nM]
1 | C[C@@H](NC(=O)[C@@H](N)Cc1ccc(O)cc1)C(=O)NCC(=O)OCc1ccccc1 | 220
2 | CN1CC[C@]23c4c5ccc(O)c4O[C@H]2[C@@H](O)C=C[C@H]3[C@H]1C5 | 1.6
3 | CSCC[C@H](NC(=O)[C@H](Cc1ccccc1)NC(=O)CNC(=O)[C@H](NC(=O)[C@@H](N)Cc1ccc(O)cc1)C(C)C)C(N)=O | 16
4 | CC(C)[C@H](NC(=O)[C@@H](N)Cc1ccc(O)cc1)C(=O)NCC(=O)NC1CCc2ccccc21 (some centres undefined) | 1400
5 | CC(C)[C@H](NC(=O)CNC(=O)[C@@H](N)Cc1ccc(O)cc1)C(=O)NC1CCc2ccccc21 (some centres undefined) | 9030
6 | CCOC(=O)CC[C@H](N)C(=O)N[C@H](C)C(=O)NCC(=O)N[C@@H](Cc1ccccc1)C(=O)N[C@H](CC(C)C)C(=O)O | 7330
7 | C[C@@H](NC(=O)[C@@H](N)Cc1ccc(O)cc1)C(=O)NCC(=O)NC1CCc2ccccc21 (some centres undefined) | 40
8 | CC(C)[C@H](NC(=O)[C@](C)(Cc1ccccc1)NC(=O)CNC(=O)[C@@H](C)NC(=O)[C@@H](N)Cc1ccc(O)cc1)C(=O)O | 125
9 | CC(NC(=O)[C@@H](N)Cc1ccc(O)cc1)C(=O)NCC(=O)NCC1CC1 (stereo in doubt) | 480
10 | CC(NC(=O)[C@@H](N)Cc1ccc(O)cc1)C(=O)NCC(=O)N[C@@](C)(Cc1ccccc1)C(=O)O (stereo in doubt) | 75
11 | CC(NC(=O)[C@@H](N)Cc1ccc(O)cc1)C(=O)NCC(=O)NC1Cc2ccccc2C1 (stereo in doubt) | 9010
12 | CC(C)CC(NC(=O)[C@H](CC1CCCCC1)NC(=O)CNC(=O)C(C)NC(=O)[C@@H](N)Cc1ccc(O)cc1)C(=O)O (stereo in doubt) | 9
13 | CC(NC(=O)[C@@H](N)Cc1ccc(O)cc1)C(=O)NCC(=O)NCc1ccccc1 (stereo in doubt) | 140
14 | CC(C)C[C@@H](NC(=O)[C@](C)(Cc1ccccc1)NC(=O)CNC(=O)C(C)NC(=O)[C@@H](N)Cc1ccc(O)cc1)C(=O)O (stereo in doubt) | 42
15 | CC(NC(=O)[C@@H](N)Cc1ccc(O)cc1)C(=O)NCC(=O)O (stereo in doubt) | 24400
16 | CC(NC(=O)[C@@H](N)Cc1ccc(O)cc1)C(=O)NCC(=O)NCC1CCC1 (stereo in doubt) | 320
17 | CC(NC(=O)[C@@H](N)Cc1ccc(O)cc1)C(=O)NCC(=O)NCCc1ccccc1 (stereo in doubt) | 98
18 | CC(C)C[C@@H](NC(=O)[C@H](Cc1ccccc1)NC(=O)CNC(=O)[C@@H](C)NC(=O)[C@@H](N)Cc1ccc(O)cc1)C(=O)O [DADLE] | 17

organism: Cavia porcellus; assay: Ability to Inhibit amplitude of the electrically stimulated guinea pig ileum by 50%; Inactive at 2.19E-4 concentration; assay type: functional, organism-based

Row | SMILES | IC50
19 | NCCc1ccc(O)cc1 [TYRAMINE] | Not Active

test system: not listed separately; assay: Ratio of IC50 of [D-Ala2, D-Leu5]-enkephalin to that of the compound, in the guinea pig ileum assay; assay type: functional; call rule not given here

Row | SMILES | Ratio
20 | C[C@@H](NC(=O)[C@@H](N)Cc1ccc(O)cc1)C(=O)NCC(=O)NC1CCc2ccccc21 (some centres undefined) | 0.47

organism: Cavia porcellus; assay: Ability to Inhibit amplitude of the electrically stimulated guinea pig ileum by 50%; Inactive at 1.7E-6 concentration; assay type: functional, organism-based

Row | SMILES | IC50
21 | CC(C)C[C@@H](NC(=O)[C@@H](Cc1ccccc1)NC(=O)CNC(=O)C(C)NC(=O)[C@](C)(N)Cc1ccc(O)cc1)C(=O)O (stereo in doubt) | Not Active

organism: Cavia porcellus; assay: Ability to Inhibit amplitude of the electrically stimulated guinea pig ileum by 50%; Inactive at 3.2E-6 concentration; assay type: functional, organism-based

Row | SMILES | IC50
22 | CC(C)[C@H](NC(=O)CNC(=O)[C@@H](N)Cc1ccc(O)cc1)C(=O)NC1CCc2ccccc21 (some centres undefined) | Not Active

organism: Cavia porcellus; assay: Ability to Inhibit amplitude of the electrically stimulated guinea pig ileum by 50%; Inactive at 2.71E-6; assay type: functional, organism-based

Row | SMILES | IC50
23 | CC(NC(=O)[C@@H](N)Cc1ccc(O)cc1)C(=O)NCC(=O)NC1Cc2ccccc2C1 (stereo in doubt) | Not Active

organism: Cavia porcellus; assay: Ability to Inhibit amplitude of the electrically stimulated guinea pig ileum by 50%; assay type: functional, organism-based

Row | SMILES | IC50 [nM]
24 | N[C@@H](Cc1ccc(O)cc1)C(=O)NCC(=O)NCC(=O)NC1CCc2ccccc21 (some centres undefined) | 2600
